Several values for one entry are separate records, joined by “and”; a condition that tells them apart may be missing. Identical values can stand only once. Like-named read-outs stand apart in the source and are kept apart here. One block for each compound: values may come before it.
How the values were obtained:
in vitro = conditions: pig, PAMPA
[1] = for CNS Prediction: predictive penetration in the CNS from PAMPA-BBB Pe
I2-IR = test: Competition binding against the selective I2-IR radioligand [3H]-2-BFI in membranes from post-mortem human frontal cortex; conditions: for [^3H]-2-BFI I2 binding affinity (pKi): membranes from post-mortem human frontal cortex, radioligand [3H]-2-BFI

Compound: CCOP(=O)(OCC)[C@]1(c2ccccc2)N=C[C@H]2C(=O)N(c3cccc(C(F)(F)F)c3)C(=O)[C@H]21 (racemic) [Compound I-52, Diethyl (1RS,3aSR,6aSR)-4,6-dioxo-1-phenyl-5-[3-(trifluoromethyl)phenyl]-1,3a,4,5,6,6a-hexahydropyrrolo[3,4-c]pyrrole-1-phosphonate]
Papp (in vitro): 6.9 ± 0.2 ×10⁻⁶ cm/s
CNS Prediction [1]: CNS+ (compounds of high BBB permeation (CNS+): Pe (10^−6 cm s^−1)>5,179)

Compound: CCOP(=O)(OCC)[C@]1(c2ccccc2)N=C[C@H]2C(=O)N(c3ccc(OC)cc3)C(=O)[C@H]21 (racemic) [Compound I-22, Diethyl (1RS,3aSR,6aSR)-5-(4-methoxyphenyl)-4,6-dioxo-1-phenyl-1,3a,4,5,6,6a-hexahydropyrrolo[3,4-c]pyrrole-1-phosphonate]
Papp (in vitro): 3.9 ± 0.15 ×10⁻⁶ cm/s
[^3H]-2-BFI I2 binding affinity (pKi) (I2-IR): 6.65 ± 1.27
CNS Prediction [1]: CNS+/− (compounds of uncertain BBB permeation (CNS+/−): 5,179>Pe (10^−6 cm s^−1)>2,083)

Compound: CCOP(=O)(OCC)[C@]1(c2ccccc2)N=C[C@H]2C(=O)N(c3ccccc3)C(=O)[C@H]21 (racemic) [Compound I-16, Diethyl (1RS,3aSR,6aSR)-4,6-dioxo-1,5-diphenyl-1,3a,4,5,6,6a-hexahydropyrrolo[3,4-c]pyrrole-1-phosphonate]
Papp (in vitro): 7.8 ± 0.6 ×10⁻⁶ cm/s
[^3H]-2-BFI I2 binding affinity (pKi) (I2-IR): 10.28 ± 0.37
CNS Prediction [1]: CNS+ (compounds of high BBB permeation (CNS+): Pe (10^−6 cm s^−1)>5,179)

Compound: CCOP(=O)(OCC)[C@]1(c2ccccc2)N=C[C@H]2C(=O)N(c3ccc(C(F)(F)F)cc3)C(=O)[C@H]21 (racemic) [Compound I-38, Diethyl (1RS,3aSR,6aSR)-4,6-dioxo-1-phenyl-5-[4-(trifluoromethyl)phenyl]-1,3a,4,5,6,6a-hexahydropyrrolo[3,4-c]pyrrole-1-phosphonate]
Papp (in vitro): 5.6 ± 0.15 ×10⁻⁶ cm/s
CNS Prediction [1]: CNS+ (compounds of high BBB permeation (CNS+): Pe (10^−6 cm s^−1)>5,179)

Compound: CCn1cc(C(=O)O)c(=O)c2cc(F)c(N3CCNCC3)cc21 [norfloxacine, reference compound]
Permeability (Pe) Experimental value ± SD (n = 3) ([1]; PAMPA-BBB, PBS:EtOH (70:30), three experiments in triplicate): 0.90 ± 0.02 10−6 cm s^−1

Compound: CCOP(=O)(OCC)[C@]1(c2ccccc2)N=C[C@H]2C(=O)N(C3CCCCC3)C(=O)[C@H]21 (racemic) [Compound I-07, Diethyl (1RS,3aSR,6aSR)-5-cyclohexyl-4,6-dioxo-1-phenyl-1,3a,4,5,6,6a-hexahydropyrrolo[3,4-c]pyrrole-1-phosphonate]
Papp (in vitro): 25.9 ± 0.6 ×10⁻⁶ cm/s
[^3H]-2-BFI I2 binding affinity (pKi) (I2-IR): 9.74 ± 0.29
CNS Prediction [1]: CNS+ (compounds of high BBB permeation (CNS+): Pe (10^−6 cm s^−1)>5,179)

Compound: CCOP(=O)(OCC)[C@]1(c2ccccc2)N=C[C@H]2C(=O)N(c3ccc(Oc4ccccc4)cc3)C(=O)[C@H]21 (racemic) [Compound I-34, Diethyl (1RS,3aSR,6aSR)-4,6-dioxo-5-(4-phenoxyphenyl)-1-phenyl-1,3a,4,5,6,6a-hexahydropyrrolo[3,4-c]pyrrole-1-phosphonate]
Papp (in vitro): 6.5 ± 0.02 ×10⁻⁶ cm/s
[^3H]-2-BFI I2 binding affinity (pKi) (I2-IR): 6.96 ± 0.30
CNS Prediction [1]: CNS+ (compounds of high BBB permeation (CNS+): Pe (10^−6 cm s^−1)>5,179)

Compound: CCOP(=O)(OCC)[C@]1(c2ccccc2)N=C[C@H]2C(=O)N(c3cccc4ccccc34)C(=O)[C@H]21 (racemic) [Compound I-56, Diethyl (1RS,3aSR,6aSR)-5-(naphth-1-yl)-4,6-dioxo-1-phenyl-1,3a,4,5,6,6a-hexahydropyrrolo[3,4-c]pyrrole-1-phosphonate]
Papp (in vitro): 1.4 ± 0.06 ×10⁻⁶ cm/s
CNS Prediction [1]: CNS− (compounds of low BBB permeation (CNS−): Pe (10^−6 cm s^−1)<2,083)

Compound: CCOP(=O)(OCC)[C@]1(c2ccccc2)N=C[C@H]2C(=O)N(c3ccc(F)cc3)C(=O)[C@H]21 (racemic) [Compound I-37, Diethyl (1RS,3aSR,6aSR)-5-(4-fluorophenyl)-4,6-dioxo-1-phenyl-1,3a,4,5,6,6a-hexahydropyrrolo[3,4-c]pyrrole-1-phosphonate]
Papp (in vitro): 3.2 ± 0.2 ×10⁻⁶ cm/s
CNS Prediction [1]: CNS+/− (compounds of uncertain BBB permeation (CNS+/−): 5,179>Pe (10^−6 cm s^−1)>2,083)

Compound: CCOP(=O)(OCC)[C@]1(c2ccccc2)N=C[C@H]2C(=O)N(CCc3ccc(F)cc3)C(=O)[C@H]21 (racemic) [Compound I-36, Diethyl (1RS,3aSR,6aSR)-5-(4-fluorophenethyl)-4,6-dioxo-1-phenyl-1,3a,4,5,6,6a-hexahydropyrrolo[3,4-c]pyrrole-1-phosphonate]
Papp (in vitro): 7.2 ± 0.45 ×10⁻⁶ cm/s
CNS Prediction [1]: CNS+ (compounds of high BBB permeation (CNS+): Pe (10^−6 cm s^−1)>5,179)

Compound: CCOP(=O)(OCC)[C@]1(c2ccccc2)N=C[C@H]2C(=O)N(CCc3ccccc3)C(=O)[C@H]21 (racemic) [Compound I-33, Diethyl (1RS,3aSR,6aSR)-4,6-dioxo-5-phenethyl-1-phenyl-1,3a,4,5,6,6a-hexahydropyrrolo[3,4-c]pyrrole-1-phosphonate]
Papp (in vitro): 6.2 ± 0.3 ×10⁻⁶ cm/s
Selectivity I2/α2 (I2-IR): 182
[^3H]-2-BFI I2 binding affinity (pKi) (I2-IR): 5.85 ± 0.18
CNS Prediction [1]: CNS+ (compounds of high BBB permeation (CNS+): Pe (10^−6 cm s^−1)>5,179)

Compound: CCOP(=O)(OCC)[C@]1(c2ccccc2)N=C[C@H]2C(=O)N(c3ccc(C)cc3)C(=O)[C@H]21 (racemic) [Compound I-45, Diethyl (1RS,3aSR,6aSR)-4,6-dioxo-1-phenyl-5-(p-tolyl)-1,3a,4,5,6,6a-hexahydropyrrolo[3,4-c]pyrrole-1-phosphonate]
Papp (in vitro): 8.75 ± 0.5 ×10⁻⁶ cm/s
CNS Prediction [1]: CNS+ (compounds of high BBB permeation (CNS+): Pe (10^−6 cm s^−1)>5,179)

Compound: CCOP(=O)(OCC)[C@@]1(Cc2ccccc2)N=C[C@H]2C(=O)N(c3ccccc3)C(=O)[C@H]21 (racemic) [Compound I-46, Diethyl (1RS,3aSR,6aSR)-1-benzyl-4,6-dioxo-5-phenyl-1,3a,4,5,6,6a-hexahydropyrrolo[3,4-c]pyrrole-1-phosphonate]
Papp (in vitro): 6.9 ± 0.3 ×10⁻⁶ cm/s
CNS Prediction [1]: CNS+ (compounds of high BBB permeation (CNS+): Pe (10^−6 cm s^−1)>5,179)

Compound: CCOP(=O)(OCC)[C@@]1(Cc2ccccc2)N=C[C@H]2C(=O)N(C3CCCCC3)C(=O)[C@H]21 (racemic) [Compound I-57, Diethyl (1RS,3aSR,6aSR)-1-benzyl-5-cyclohexyl-4,6-dioxo-1,3a,4,5,6,6a-hexahydropyrrolo[3,4-c]pyrrole-1-phosphonate]
Papp (in vitro): 5.1 ± 0.01 ×10⁻⁶ cm/s
CNS Prediction [1]: CNS+/− (compounds of uncertain BBB permeation (CNS+/−): 5,179>Pe (10^−6 cm s^−1)>2,083)

Compound: CCOP(=O)(OCC)[C@]1(c2ccccc2)N=C[C@H]2C(=O)N(c3ccc(-c4ccccc4)cc3)C(=O)[C@H]21 (racemic) [Compound I-32, Diethyl (1RS,3aSR,6aSR)-5-(1,1′-biphenyl)-4-yl-4,6-dioxo-1-phenyl-1,3a,4,5,6,6a-hexahydropyrrolo[3,4-c]pyrrole-1-phosphonate]
Papp (in vitro): 8.2 ± 0.3 ×10⁻⁶ cm/s
[^3H]-2-BFI I2 binding affinity (pKi) (I2-IR): 7.90 ± 0.46
CNS Prediction [1]: CNS+ (compounds of high BBB permeation (CNS+): Pe (10^−6 cm s^−1)>5,179)

[^3H]-2-BFI I2 binding affinity (pKi) (I2-IR): 7.27±0.07 and 7.41 ± 0.63
Compound: c1ccc2c(c1)OCC(C1=NCCN1)O2 (stereo not drawn) [Idazoxan, reference compound]

Compound: CCCN1C(=O)[C@@H]2[C@@H](C=N[C@@]2(c2ccccc2)P(=O)(OCC)OCC)C1=O (racemic) [Compound I-51, Diethyl (1RS,3aSR,6aSR)-4,6-dioxo-1-phenyl-5-propyl-1,3a,4,5,6,6a-hexahydropyrrolo[3,4-c]pyrrole-1-phosphonate]
Papp (in vitro): 6.2 ± 0.3 ×10⁻⁶ cm/s
CNS Prediction [1]: CNS+ (compounds of high BBB permeation (CNS+): Pe (10^−6 cm s^−1)>5,179)

Compound: CCOP(=O)(OCC)[C@]1(c2ccccc2)N=C[C@H]2C(=O)N(C(C)(C)C)C(=O)[C@H]21 (racemic) [Compound I-55, Diethyl (1RS,3aSR,6aSR)-5-(tert-butyl)-4,6-dioxo-1-phenyl-1,3a,4,5,6,6a-hexahydropyrrolo[3,4-c]pyrrole-1-phosphonate]
Papp (in vitro): 6.3 ± 0.3 ×10⁻⁶ cm/s
CNS Prediction [1]: CNS+ (compounds of high BBB permeation (CNS+): Pe (10^−6 cm s^−1)>5,179)

Compound: CCOP(=O)(OCC)[C@]1(c2ccccc2)N=C[C@H]2C(=O)N(c3ccc(Cl)c(Cl)c3)C(=O)[C@H]21 (racemic) [Compound I-44, Diethyl (1RS,3aSR,6aSR)-5-(3,4-dichlorophenyl)-4,6-dioxo-1-phenyl-1,3a,4,5,6,6a-hexahydropyrrolo[3,4-c]pyrrole-1-phosphonate]
Papp (in vitro): 8.9 ± 0.3 ×10⁻⁶ cm/s
CNS Prediction [1]: CNS+ (compounds of high BBB permeation (CNS+): Pe (10^−6 cm s^−1)>5,179)

Compound: CCOP(=O)(OCC)[C@]1(c2ccccc2)N=C[C@H]2C(=O)N(c3ccc(Cl)cc3)C(=O)[C@H]21 (racemic) [Compound I-49, Diethyl (1RS,3aSR,6aSR)-5-(4-chlorophenyl)-4,6-dioxo-1-phenyl-1,3a,4,5,6,6a-hexahydropyrrolo[3,4-c]pyrrole-1-phosphonate]
Papp (in vitro): 5.5 ± 0.03 ×10⁻⁶ cm/s
CNS Prediction [1]: CNS+ (compounds of high BBB permeation (CNS+): Pe (10^−6 cm s^−1)>5,179)

Compound: CCOP(=O)(OCC)[C@]1(c2ccccc2)N=C[C@H]2C(=O)N(CC)C(=O)[C@H]21 (racemic) [Compound I-54, Diethyl (1RS,3aSR,6aSR)-5-ethyl-4,6-dioxo-1-phenyl-1,3a,4,5,6,6a-hexahydropyrrolo[3,4-c]pyrrole-1-phosphonate]
Papp (in vitro): 3.7 ± 0.5 ×10⁻⁶ cm/s
CNS Prediction [1]: CNS+/− (compounds of uncertain BBB permeation (CNS+/−): 5,179>Pe (10^−6 cm s^−1)>2,083)

Compound: CCOP(=O)(OCC)[C@]1(C)N=C[C@H]2C(=O)N(C)C(=O)[C@H]21 (racemic) [Compound I-25, Diethyl (1RS,3aRS,6aRS)-1,5-dimethyl-4,6-dioxo-1,3a,4,5,6,6a-hexahydropyrrolo[3,4-c]pyrrole-1-phosphonate]
Papp (in vitro): 4.6 ± 0.7 ×10⁻⁶ cm/s
Selectivity I2/α2 (I2-IR; antilogarithm of the difference between pKi for I2-IR and pKi for α2-AR): 19
[^3H]-2-BFI I2 binding affinity (pKi) (I2-IR): 8.57 ± 0.39
CNS Prediction [1]: CNS+/− (compounds of uncertain BBB permeation (CNS+/−): 5,179>Pe (10^−6 cm s^−1)>2,083)
